What was measured:
Assay type in all cases: cell-based
A2780 = experiment: WST-1 cytotoxicity, 72 h; conditions: for IC50 / potency relative to cisplatin: A2780, 72 h; for IC50: mean ± SEM; for Selective cytotoxicity index (SCI): IC50 MCF10A/IC50 A2780
Procedure: (§1) Cells were seeded in 96-well flat-bottom culture plates at a concentration of 1000 cells per well. […] After 72 h, the medium was removed and replaced with new medium. The cell viability reagent WST-1 (10 µL, Roche Diagnostics, Indianapolis, IN, USA) was added to each well. After an hour, the absorbance was measured at 450 nm using a versatile microplate reader (Bio-strategy, Campbellfield, VIC, Australia). Three separate experiments were performed, each with n = 3 replicates. GraphPad prism 10 was used to calculate apparent IC50 values using the nonlinear regression model Y = Bottom + (Top-Bottom)/(1 + 10^(X-LogIC50)) where Top and bottom are plateaus in the y-axis (% survival).

ADDP = experiment: WST-1 cytotoxicity, 72 h; conditions: for IC50 / potency relative to cisplatin: ADDP, 72 h; for IC50: mean ± SEM; for Selective cytotoxicity index (SCI): IC50 MCF10A/IC50 ADDP
Procedure: as §1

HT29 = experiment: WST-1 cytotoxicity, 72 h; conditions: for IC50 / potency relative to cisplatin: HT29, 72 h; for IC50: mean ± SEM; for Selective cytotoxicity index (SCI): IC50 MCF10A/IC50 HT29
Procedure: as §1

MCF−7 = experiment: WST-1 cytotoxicity, 72 h; conditions: for IC50 / potency relative to cisplatin: MCF−7, 72 h; for IC50: mean ± SEM; for Selective cytotoxicity index (SCI): IC50 MCF10A/IC50 MCF−7
Procedure: as §1

MDA−MB−231 = experiment: WST-1 cytotoxicity, 72 h; conditions: for IC50 / potency relative to cisplatin: MDA−MB−231, 72 h; for IC50: mean ± SEM; for Selective cytotoxicity index (SCI): IC50 MCF10A/IC50 MDA−MB−231
Procedure: as §1

MDA−MB−231 3D networks = experiment: 3D bioprinted culture cytotoxicity (WST-1); conditions: 72 h, mean ± SEM
Excerpt: To evaluate the cytotoxic effect of platinum(II) and (IV) complexes in 3D cell culture, MDA−MB−231 or HT29 cells were used to bioprint networks or spheroids with the non-contact drop-on-demand 3D RASTRUM bioprinter (Inventia Life Science, Alexandria, NSW, Australia). The 3D cultures use two constituents: bioink and activator. Cell pellets (2 × 10^6 cells) were resuspended in an activator reagent which forms an instant gel after its addition to the bioink by the bioprinter. The 3D large plug cell model with polyethylene glycol bioinks formulated to mimic the properties of in vivo tissue were chosen as follows. Matrix Px02.31 (activator F177 and bioink F242 with RGD: Fibronectin) was used for MDA−MB−231 3D embedded networks, Px02.00 (activator F177 and bioink F119 without RGD additives, Table S1) was used for MDA−MB−231 spheroids and matrix #Px02.09 (activator F177 and bioink F236 with adhesion peptides including, RGD: Fibronectin, and GFOGER: collagen type I to recapitulate rich in vivo tissue extracellular environments) was used for HT29 spheroids (Inventia Life Science) (Table S1). Each cell line was printed at 10,000 cells/well and loaded with the bioink fluids into the selected printer cartridge. After the automated priming of all fluids into the printer nozzles, each cell line was individually printed on tissue culture plates (Nunc^TM MicroWell^TM 96-Well, Nunclon Delta-Treated, Flat-Bottom Microplate, ThermoFisher #167008), with RASTRUM creating the 3D Large Plug across the 96-well plate. Following completion of the print run, 200 μL DMEM culture medium was added to each well using multichannel pipettes. The plate was then incubated for 7 days (humidified incubator with 5% CO2 at 37 °C) for compact and homogenous spheroid formation before the cytotoxicity assay. When the spheroids developed, post-7-day incubation, media was removed and replaced with 100 µL DMEM. […] Cytotoxicity was then assessed using the WST-1 assay as previously described in Section 2.3.

HT29 cells = experiment: Cellular localisation of Pt (fractionation, ICP-MS); conditions: HT29, 3 µM, 24 h
Procedure: (§2) MDA−MB−231 and HT29 cells were seeded at a final concentration of 10^6 cells/well in 6-well plates and incubated overnight. Cells were then treated with 3 µM of either Pt^II or Pt^IV complexes for 24 h. The media was next removed, and cells were washed three times with ice-cold PBS. Then the cells were trypsinised. The isolation of individual fractions was carried out using the Fraction-PREP Cell Fractionation kit (ab288085, Abcam, Cambridge, MA, USA). The cell pellet was resuspended in ice-cold PBS and moved to Eppendorf tubes to spin for 5 min at 700× g and supernatant was removed. The pellet was then resuspended in 400 µL of cytosol extraction buffer mix and incubated for 20 min on ice. Next, samples were centrifuged at 700× g for 10 min and the supernatant was collected as the cytosolic fraction. The pellet was then resuspended in 400 µL of ice-cold membrane A extraction buffer mix and vortexed for 10 s, after which membrane B extraction buffer mix was added and incubated on ice for 1 min. The sample was then vortexed and centrifuged for 5 min at 1000× g. […] The pellet was then resuspended in 200 µL of ice-cold nuclear extraction buffer, vortexed for 20 s and then incubated on ice for 40 min with constant vortexing every 10 min. The samples were then centrifuged for 10 min at maximum speed. […] Platinum cell localisation was then measured via ICP-MS, as described in Section 2.5.

MDA−MB−231 cells = experiment: as above; conditions: MDA−MB−231, 3 µM, 24 h
Procedure: as §2

Compound	IC50 (A2780)	IC50 (ADDP)	IC50 (HT29)	IC50 (MCF−7)	IC50 (MDA−MB−231)	IC50 (MDA−MB−231 3D networks)	subcellular fraction with main platinum accumulation (HT29 cells)	subcellular fraction with main platinum accumulation (MDA−MB−231 cells)	potency relative to cisplatin (A2780)	Selective cytotoxicity index (SCI) (A2780)	potency relative to cisplatin (ADDP)	Selective cytotoxicity index (SCI) (ADDP)	potency relative to cisplatin (HT29)	Selective cytotoxicity index (SCI) (HT29)	Selective cytotoxicity index (SCI) (MCF−7)	potency relative to cisplatin (MCF−7)	Selective cytotoxicity index (SCI) (MDA−MB−231)	potency relative to cisplatin (MDA−MB−231)
N.N.[Cl][Pt][Cl] [Cisplatin, cisplatin]	21500 ± 1550 nM	112000 ± 2020 nM	77800 ± 1970 nM	33000 ± 1350 nM	13100 ± 1360 nM	16000 ± 1490 nM	membrane/particulate fraction	membrane/particulate fraction										
Cc1cc2cccnc2c2ncccc12.N[C@H]1CCCC[C@@H]1N.O=[N+]([O-])[O-].O=[N+]([O-])[O-].[Pt+2] [Pt^II5MESS, [Pt(5-methyl-1,10-phenanthroline)(1S,2S-diaminocyclohexane)](NO3)2]	650 ± 1710 nM	1320 ± 1330 nM	550 ± 1420 nM	860 ± 1670 nM	520 nM	2040 ± 1310 nM			33 fold	1.82	85 fold	0.89	149 fold	2.15	1.37	38 fold	2.27	25 fold
Cc1c(C)c2cccnc2c2ncccc12.N[C@H]1CCCC[C@@H]1N.O=[N+]([O-])[O-].O=[N+]([O-])[O-].[Pt+2] [Pt^II56MESS, [Pt(5,6-dimethyl-1,10-phenanthroline)(1S,2S-diaminocyclohexane)](NO3)2]	190 nM	760 ± 1270 nM	180 nM	560 nM	140 nM	980 ± 1210 nM			113 fold	2.16	147 fold	0.54	432 fold	2.28	0.73	59 fold	2.93	93 fold
Cc1cc2cccnc2c2ncccc12.N[C@H]1CCCC[C@@H]1N.O=[N+]([O-])[O-].O=[N+]([O-])[O-].[OH][Pt+2][OH] [Pt^IV5MESS(OH)2, [Pt(5-methyl-1,10-phenanthroline)(1S,2S-diaminocyclohexane)(dihydroxy)](NO3)2]	2140 ± 1380 nM	7710 ± 1310 nM	3640 ± 1450 nM	2160 ± 1530 nM	2790 ± 1390 nM	3820 ± 1420 nM			10 fold	5.71	15 fold	1.58	21 fold	3.36	5.66	15 fold	4.38	5 fold
Cc1c(C)c2cccnc2c2ncccc12.N[C@H]1CCCC[C@@H]1N.O=[N+]([O-])[O-].O=[N+]([O-])[O-].[OH][Pt+2][OH] [Pt^IV56MESS(OH)2, [Pt(5,6-dimethyl-1,10-phenanthroline)(1S,2S-diaminocyclohexane)(dihydroxy)](NO3)2]	1690 ± 1360 nM	4170 ± 1550 nM	1250 ± 1380 nM	1360 ± 1470 nM	710 ± 1220 nM	1400 ± 1340 nM			13 fold	2.90	27 fold	1.18	62 fold	3.93	3.61	24 fold	6.92	18 fold
N[C@H]1CCCC[C@@H]1N.O=[N+]([O-])[O-].O=[N+]([O-])[O-].[OH-].[OH-].[Pt+4].c1cnc2c(c1)ccc1cccnc12 [[Pt(1,10-phenanthroline)(1S,2S-diaminocyclohexane)(dihydroxy)](NO3)2]	6490 ± 1230 nM	13600 ± 1570 nM	4480 ± 1770 nM	9390 ± 1260 nM	3340 ± 1370 nM	6180 ± 1620 nM			3 fold	3.15	8 fold	1.49	17 fold	4.57	2.18	3 fold	6.13	4 fold
N[C@H]1CCCC[C@@H]1N.O=[N+]([O-])[O-].O=[N+]([O-])[O-].[Pt+2].c1cnc2c(c1)ccc1cccnc12 [[Pt(1,10-phenanthroline)(1S,2S-diaminocyclohexane)](NO3)2]	1110 ± 1880 nM	2550 ± 1480 nM	760 ± 1470 nM	1830 ± 2120 nM	1010 ± 1360 nM	2840 ± 1560 nM			19 fold	3.14	44 fold	1.37	102 fold	4.59	1.91	18 fold	3.45	13 fold
